# Source: patent US7544668B2, “Saponins derived from Ilex pubescens and method of purifying the same” (priority 2006, dated 2009)
# Tests used:
# [1] = tested on: radiant heat stimulation-induced tail flick reaction; assay: tail flick test, radiant heat stimulation in mice; format: in vivo, ICR mice; conditions: for Tail flick reaction time: 50 mg/kg oral
# Experimental: Animal Material. Male and female ICR mice weighing 18-24 g and male SD rats weighing 150-210 g were purchased from the Laboratory Animal Services Center, the Chinese University of Hong Kong, Hong Kong. The animals were acclimated for more than 1 week under 12 hours light and 12 hours dark cycle at room temperature of 22±1° C. Chow diet and water were provided ad libitum. Animal care and treatment procedures conformed to the Institutional Guidelines and Animal Ordinance (Department of Health, Hong Kong Special Administrative Region.) Mice and rats were fasted for 16 hours and 48 hours, respectively, before experiment.
# Mode of Administration. The PSF solutions for anti-inflammatory and analgesic experiments were prepared by dissolving the product in 30% propanediol solution (for i.p. injection) and 0.5% (w/v) carboxymethylcellulose sodium salt (CMC—Na) (for orally administration), respectively. The reference drug indomethacin for anti-inflammatory test was dissolved in a vehicle that consisted of 10% peanut oil, 10% Tween-80 and 80% distilled water. Rotundine was suspended in 0.5% (w/v) CMC—Na salt and used as reference drug for anti-nociceptive experiment.
# The anti-nociceptive effects of PSF and the reference drug, expressed as the time required for mice tail flick after exposure to a source of radiant heat, were evaluated according to the description of d'Amour^3. […] The tail-flick response was elicited by applying radiant heat to the point ⅓ of length away from the tip of the tail. The apparatus was arranged so that when the operator turned on the lamp a timer was activated. When the mice felt pain and flicked its tail, light fell on the photocell such that the timer was automatically stopped. The intensity of the heat stimulus in the tail-flick test was adjusted so that the animal flicked its tail within 3 to 6 seconds. A 12 seconds cut-off time was set in order to prevent tail tissues from damage. Before the experiment, the heat stimulation latency of all animals was tested, and those with response time to heat stimulation from […] were excluded. The tail-flick response was measured at 0.5, 1, and 2 hours after oral administration of PSF (200, 100 and 50 mg/kg body weight) or rotundine (50 mg/kg, as reference drug) or vehicle.
# [2] = tested on: acetic acid induced writhing response; assay: abdominal writhing test induced by acetic acid in mice; format: in vivo, ICR mice
# Experimental: Animal Material. Male and female ICR mice weighing 18-24 g and male SD rats weighing 150-210 g were purchased from the Laboratory Animal Services Center, the Chinese University of Hong Kong, Hong Kong. The animals were acclimated for more than 1 week under 12 hours light and 12 hours dark cycle at room temperature of 22±1° C. Chow diet and water were provided ad libitum. Animal care and treatment procedures conformed to the Institutional Guidelines and Animal Ordinance (Department of Health, Hong Kong Special Administrative Region.) Mice and rats were fasted for 16 hours and 48 hours, respectively, before experiment. Mode of Administration. The PSF solutions for anti-inflammatory and analgesic experiments were prepared by dissolving the product in 30% propanediol solution (for i.p. injection) and 0.5% (w/v) carboxymethylcellulose sodium salt (CMC—Na) (for orally administration), respectively. The reference drug indomethacin for anti-inflammatory test was dissolved in a vehicle that consisted of 10% peanut oil, 10% Tween-80 and 80% distilled water. Rotundine was suspended in 0.5% (w/v) CMC—Na salt and used as reference drug for anti-nociceptive experiment. The abdominal writhing test induced by chemical stimulation of acetic acid was performed in mice as originally described by Siegmund^2. […] Rotundine was orally administrated 1 hour before acetic acid injection. After intraperitoneal injection of 0.2 ml acetic acid (0.8% w/v) in physiological saline (0.9% w/v NaCl), animals were isolated for observation. The numbers of abdominal writhing syndrome/events, which consisted of the contraction of the abdominal area with extension of hind legs, were recorded during a 15 minutes period in each animal.
# [3] = tested on: carrageenan-induced paw edema; assay: carrageenan induced paw edema in rats; format: in vivo, SD rats; conditions: 10 mg/kg oral
# Experimental: (§1) Animal Material. Male and female ICR mice weighing 18-24 g and male SD rats weighing 150-210 g were purchased from the Laboratory Animal Services Center, the Chinese University of Hong Kong, Hong Kong. The animals were acclimated for more than 1 week under 12 hours light and 12 hours dark cycle at room temperature of 22±1° C. Chow diet and water were provided ad libitum. Animal care and treatment procedures conformed to the Institutional Guidelines and Animal Ordinance (Department of Health, Hong Kong Special Administrative Region.) Mice and rats were fasted for 16 hours and 48 hours, respectively, before experiment. Mode of Administration. The PSF solutions for anti-inflammatory and analgesic experiments were prepared by dissolving the product in 30% propanediol solution (for i.p. injection) and 0.5% (w/v) carboxymethylcellulose sodium salt (CMC—Na) (for orally administration), respectively. The reference drug indomethacin for anti-inflammatory test was dissolved in a vehicle that consisted of 10% peanut oil, 10% Tween-80 and 80% distilled water. Rotundine was suspended in 0.5% (w/v) CMC—Na salt and used as reference drug for anti-nociceptive experiment. The experiment was conducted as previously described by Winter^1. At the induction, each rat was injected with 0.1 ml freshly prepared carrageenan (1% w/v) in physiological saline (0.9% w/v NaCl) into subplantar tissues of the right hind paw. The left hind paws without injection were used as controls. PSF was i.p. administrated 10 minutes prior to carrageenan injection. Control animals received an appropriate volume of 30% propanediol. Indomethacin was orally administrated 1 hr before the carrageenan injection as a reference drug. The volumes (ml) of both hind paws were measured using a plethysmometer (Plethysmometer 7150, UGO Basile, Italy) at 1 hour before the induction and 1, 2, 3, 4, 6, and 8 hours after the induction. The increased volumes (paw edema) of the right hind paws of rats were calculated by the following equation: the increased rate (%)=(B−A)/A×100, where A and B represent the paw volumes before and at different time points after the induction, respectively.
# [4] = tested on: histamine-induced paw edema; assay: histamine induced paw edema in rats; format: in vivo, SD rats; conditions: 10 mg/kg oral
# Experimental: as §1, with “experiment. The volumes (ml)” for “experiment. The experiment was conducted as previously described by Winter^1. At the induction, each rat was injected with 0.1 ml freshly prepared carrageenan (1% w/v) in physiological saline (0.9% w/v NaCl) into subplantar tissues of the right hind paw. The left hind paws without injection were used as controls. PSF was i.p. administrated 10 minutes prior to carrageenan injection. Control animals received an appropriate volume of 30% propanediol. Indomethacin was orally administrated 1 hr before the carrageenan injection as a reference drug. The volumes (ml)”, “induction, respectively. The acute inflammation in the hind paws was induced by the subcutaneous injection of 0.05 ml 1% prepared solutions of histamine into right hind paws of rats. The left hind paws were used as controls. Administration of PSF (12.5 mg/kg, 25 mg/kg, 50 mg/kg, 100 mg/kg body weight, i.p. injection), or of the vehicle (30% propanediol) was performed at 10 minutes prior to carrageenan injection. Indomethacin was orally administrated at 1 hour before the induction. The volumes of the injected and control paws were measured at different time points designed from 0.5 to 4 hours after injection of histamine. The increased rates in paw volume were calculated in the same way as in carrageenan.” for “induction, respectively.”
# [5] = oral, in comparison with vehicle-treated animals
structure (smiles),measurement,setting,value
COc1cc2c(cc1OC)[C@@H]1Cc3ccc(OC)c(OC)c3CN1CC2 [Rotundine],Tail flick reaction time,[1]; 0.5 h after administration,7.552 ± 3.301 s
same,Tail flick reaction time,[1]; 1 h after administration,11.044 ± 1.658 s
same,Tail flick reaction time,[1]; 2 h after administration,9.813 ± 3.069 s
same,Tail flick reaction time,[1]; time 0,4.223 ± 0.458 s
same,effect on tail flick reaction time of mice,[1]; [5],prolonged the reaction time
same,Inhibition (%),[2]; 50 mg/kg oral 1 hour before acetic acid,100%
same,Writhing count,"[2]; 50 mg/kg oral 1 hour before acetic acid, 15 minutes period",0.00 ± 0.00
same,effect on number of writhing episodes of mice,[2]; [5],complete analgesia
COc1ccc2c(c1)c(CC(=O)O)c(C)n2C(=O)c1ccc(Cl)cc1 [Indomethacin],Changes in swelling percentage after carrageenan injection (%),[3]; 1 h after carrageenan,8.54 ± 4.97 %
same,Changes in swelling percentage after carrageenan injection (%),[3]; 2 h after carrageenan,10.80 ± 7.77 %
same,Changes in swelling percentage after carrageenan injection (%),[3]; 3 h after carrageenan,9.49 ± 6.63 %
same,Changes in swelling percentage after carrageenan injection (%),[3]; 4 h after carrageenan,13.53 ± 10.13 %
same,Changes in swelling percentage after carrageenan injection (%),[3]; 6 h after carrageenan,17.43 ± 9.21 %
same,Changes in swelling percentage after carrageenan injection (%),[3]; 8 h after carrageenan,34.70 ± 9.21%
same,Change in paw swelling after histamine injection (%),[4]; 0.5 h after histamine,29.72 ± 10.67%
same,Change in paw swelling after histamine injection (%),[4]; 1 h after histamine,14.64 ± 9.21 %
same,Change in paw swelling after histamine injection (%),[4]; 2 h after histamine,11.51 ± 6.61 %
same,Change in paw swelling after histamine injection (%),[4]; 3 h after histamine,11.35 ± 7.35%
same,Change in paw swelling after histamine injection (%),[4]; 4 h after histamine,7.43 ± 6.05 %
same,Change in paw swelling after histamine injection (%),[4]; 6 h after histamine,4.17 ± 6.05%
same,effect on histamine-induced edema,[4]; at a later time than PSF,significant inhibitory effect
